Consider 23 compounds from US9663508B2, “Biaryl acyl-sulfonamide compounds as sodium channel inhibitors” (AMGEN INC., priority 2013, dated 2017).

This experiment deals with human Nav1.7 (Homo sapiens (Human), UniProt Q15858). Nature of the experiment: Nav 1.7 in vitro PatchXpress (PX) assay. It is filed as cell-based.

SMILES strings stand for the structures. Like-named read-outs stand apart in the source and are kept apart here.

What is called IC50 is the midpoint of a concentration-inhibition curve. Lower therefore signals higher potency.

human Nav1.7, sequence (Q15858 whole entry): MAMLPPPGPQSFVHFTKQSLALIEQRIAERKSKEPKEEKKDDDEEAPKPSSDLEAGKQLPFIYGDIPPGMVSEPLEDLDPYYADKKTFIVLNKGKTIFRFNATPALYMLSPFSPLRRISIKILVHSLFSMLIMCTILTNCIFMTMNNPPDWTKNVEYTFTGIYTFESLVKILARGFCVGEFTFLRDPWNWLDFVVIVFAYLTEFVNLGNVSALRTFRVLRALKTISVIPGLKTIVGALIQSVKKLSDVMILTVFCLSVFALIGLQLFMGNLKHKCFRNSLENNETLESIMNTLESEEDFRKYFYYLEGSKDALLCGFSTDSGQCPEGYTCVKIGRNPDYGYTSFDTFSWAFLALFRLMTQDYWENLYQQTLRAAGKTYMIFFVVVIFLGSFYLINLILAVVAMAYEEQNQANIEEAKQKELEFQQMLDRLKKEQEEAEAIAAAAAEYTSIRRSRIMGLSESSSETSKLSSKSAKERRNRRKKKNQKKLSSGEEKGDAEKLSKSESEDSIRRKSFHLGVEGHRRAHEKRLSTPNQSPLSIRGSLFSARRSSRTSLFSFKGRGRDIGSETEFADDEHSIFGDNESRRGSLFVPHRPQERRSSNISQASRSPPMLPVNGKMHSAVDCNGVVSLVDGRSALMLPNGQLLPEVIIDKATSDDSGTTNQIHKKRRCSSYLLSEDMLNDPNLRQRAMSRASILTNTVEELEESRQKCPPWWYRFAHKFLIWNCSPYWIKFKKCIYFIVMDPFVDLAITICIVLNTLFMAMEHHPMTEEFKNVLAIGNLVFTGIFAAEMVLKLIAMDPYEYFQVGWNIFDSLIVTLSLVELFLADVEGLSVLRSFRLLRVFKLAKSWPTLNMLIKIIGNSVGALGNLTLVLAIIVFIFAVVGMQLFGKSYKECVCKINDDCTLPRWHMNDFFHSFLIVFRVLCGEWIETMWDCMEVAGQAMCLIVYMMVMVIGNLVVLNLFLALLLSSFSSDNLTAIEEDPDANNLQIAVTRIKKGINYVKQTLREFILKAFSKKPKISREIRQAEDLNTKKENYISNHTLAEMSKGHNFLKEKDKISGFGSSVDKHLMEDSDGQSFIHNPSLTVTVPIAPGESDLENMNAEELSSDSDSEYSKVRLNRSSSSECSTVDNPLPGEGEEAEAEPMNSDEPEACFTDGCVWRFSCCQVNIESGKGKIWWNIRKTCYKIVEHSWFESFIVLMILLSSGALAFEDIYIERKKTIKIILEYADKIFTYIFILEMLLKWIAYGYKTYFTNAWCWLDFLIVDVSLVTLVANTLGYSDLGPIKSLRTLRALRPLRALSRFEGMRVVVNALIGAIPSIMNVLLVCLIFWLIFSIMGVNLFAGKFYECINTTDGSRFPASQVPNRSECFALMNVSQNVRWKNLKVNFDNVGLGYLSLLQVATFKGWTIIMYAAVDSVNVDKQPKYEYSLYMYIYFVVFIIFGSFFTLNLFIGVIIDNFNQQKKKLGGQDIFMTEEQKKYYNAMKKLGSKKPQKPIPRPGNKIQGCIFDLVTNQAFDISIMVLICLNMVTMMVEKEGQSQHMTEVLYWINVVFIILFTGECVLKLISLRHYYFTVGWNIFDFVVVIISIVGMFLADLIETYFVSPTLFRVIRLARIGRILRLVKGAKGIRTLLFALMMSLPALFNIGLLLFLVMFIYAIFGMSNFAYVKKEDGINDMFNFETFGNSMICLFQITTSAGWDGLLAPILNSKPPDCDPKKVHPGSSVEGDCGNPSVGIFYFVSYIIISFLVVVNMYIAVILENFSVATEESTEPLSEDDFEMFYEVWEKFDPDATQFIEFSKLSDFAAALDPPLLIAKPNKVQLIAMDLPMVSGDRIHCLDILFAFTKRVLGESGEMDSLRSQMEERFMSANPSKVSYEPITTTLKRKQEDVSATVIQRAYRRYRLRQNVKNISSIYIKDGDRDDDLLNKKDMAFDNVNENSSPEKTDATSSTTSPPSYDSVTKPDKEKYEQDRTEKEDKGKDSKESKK

Take `Cc1cc(C(=O)NS(C)(=O)=O)c(F)cc1-c1cnc(OC(C(F)(F)F)C(F)(F)F)c(Cl)c1` [Example 686, 4-(5-chloro-6-(2,2,2-trifluoro-1-(trifluoromethyl)ethoxy)-3-pyridinyl)-2-fluoro-5-methyl-N-(methylsulfonyl)benzamide]: half-maximal inhibition (IC50) was put at 0.115 µM. `CS(=O)(=O)NC(=O)c1ccc(-c2cnc(Oc3ccccc3C(F)(F)F)c(Cl)c2)c(OC(F)F)c1` [Example 464, 4-(5-chloro-6-(2-(trifluoromethyl)phenoxy)-3-pyridinyl)-3-(difluoromethoxy)-N-(methylsulfonyl)benzamide] gave an IC50 of 0.0924 µM.

As to `COc1cc(C(=O)NS(C)(=O)=O)c(F)cc1-c1cnc(Oc2ccc(F)c3c2CCC3)c(Cl)c1` [Example 757, 4-(5-chloro-6-((7-fluoro-2,3-dihydro-1H-inden-4-yl)oxy)-3-pyridinyl)-2-fluoro-5-methoxy-N-(methylsulfonyl)benzamide], under “in-vitro Nav 1.7 PX data”, the IC50 was 0.0477 µM. Take `Cc1cc(C(=O)NS(C)(=O)=O)c(F)cc1-c1cccc(OC(F)(F)C(F)F)c1` [Example 812, 5-fluoro-2-methyl-N-(methylsulfonyl)-3′-(1,1,2,2-tetrafluoroethoxy)-4-biphenylcarboxamide]: the 50% inhibitory concentration (IC50) (in-vitro Nav 1.7 PX data) stood at 5.84 µM. Turning to `Cc1cc(C(=O)NS(C)(=O)=O)c(F)cc1-c1cnc(Oc2cccc(C(F)(F)F)c2C)c(Cl)c1` [Example 677, 4-(5-chloro-6-(2-methyl-3-(trifluoromethyl)phenoxy)-3-pyridinyl)-2-fluoro-5-methyl-N-(methylsulfonyl)benzamide], the IC50 is 0.0837 µM. Where the note is “in-vitro Nav 1.7 PX data”, `Cc1cc(C(=O)NS(C)(=O)=O)c(F)cc1-c1cnc(Oc2cc(Cl)cc(Cl)c2)c(C(F)(F)F)c1` [Example 817, 4-(6-(3,5-Dichlorophenoxy)-5-(Trifluoromethyl)Pyridin-3-yl)-2-Fluoro-5-Methyl-N-(Methylsulfonyl)Benzamide] yielded an IC50 of 0.169 µM. `COc1cc(C(=O)NS(C)(=O)=O)ccc1-c1cnc(Oc2cccc(F)c2F)c(Cl)c1` [Example 402, 4-(5-chloro-6-(2,3-difluorophenoxy)-3-pyridinyl)-3-methoxy-N-(methylsulfonyl)benzamide]: the midpoint of inhibition, the IC50, lay at 0.08 µM. Same read-out and setting: with `Cc1ccc(Cl)cc1Oc1ncc(-c2cc(F)c(C(=O)NS(C)(=O)=O)cc2F)cc1Cl` [Example 571, 4-(5-chloro-6-(5-chloro-2-methylphenoxy)-3-pyridinyl)-2,5-difluoro-N-(methylsulfonyl)benzamide] the figure was 0.0992 µM; with `COc1cc(C(=O)NS(C)(=O)=O)ccc1-c1cnc(Oc2cc(F)ccc2F)c(Cl)c1` [Example 363, 4-(5-chloro-6-(2,5-difluorophenoxy)-3-pyridinyl)-3-methoxy-N-(methylsulfonyl)benzamide], 0.1 µM; with `Cc1cc(Oc2ncc(-c3ccc(C(=O)NS(C)(=O)=O)cc3OC(F)F)cc2Cl)ccc1Cl` [Example 453, 4-(5-chloro-6-(4-chloro-3-methylphenoxy)-3-pyridinyl)-3-(difluoromethoxy)-N-(methylsulfonyl)benzamide], 0.0603 µM. Turning to `COc1cc(C(=O)NS(C)(=O)=O)ccc1-c1cnc(Oc2ccc(Cl)cc2)c(Cl)c1` [Example 350, 4-(5-chloro-6-(4-chlorophenoxy)-3-pyridinyl)-3-methoxy-N-(methylsulfonyl)benzamide], the IC50 came to 0.0926 µM.

In turn, `CC[C@@H](Oc1ncc(-c2cc(F)c(C(=O)NS(C)(=O)=O)cc2C)cc1Cl)c1ccc(C)cc1` [Example 685, 4-(5-chloro-6-(((1R)-1-(4-methylphenyl)propyl)oxy)-3-pyridinyl)-2-fluoro-5-methyl-N-(methylsulfonyl)benzamide, 4-(5-chloro-6-(((1S)-1-(4-methylphenyl)propyl)oxy)-3-pyridinyl)-2-fluoro-5-methyl-N-(methylsulfonyl)benzamide] came in with an IC50 of 0.0881 µM. Turning to `COc1cc(C(=O)NS(C)(=O)=O)ccc1-c1cnc(Oc2cc(Cl)cc(Cl)c2)c(C=O)c1` [Example 822, 4-(6-(3,5-Dichlorophenoxy)-5-Formylpyridin-3-yl)-3-Methoxy-N-(Methylsulfonyl)Benzamide], the 50% inhibitory concentration (IC50) (in-vitro Nav 1.7 PX data) was 0.151 µM. Consider `COc1cc(C(=O)NS(C)(=O)=O)c(F)cc1-c1cnc(N[C@@H]2CC23CCCC3)c(Cl)c1` [Example 720, 4-(5-chloro-6-((1R)-spiro[2.4]hept-1-ylamino)-3-pyridinyl)-2-fluoro-5-methoxy-N-(methylsulfonyl)benzamide, 4-(5-chloro-6-((1S)-spiro[2.4]hept-1-ylamino)-3-pyridinyl)-2-fluoro-5-methoxy-N-(methylsulfonyl)benzamide], for which the IC50 (in-vitro Nav 1.7 PX data) stood at 0.0844 µM. Same read-out and setting: to `COc1cc(C(=O)NS(C)(=O)=O)ccc1-c1cnc(Cc2ccc(Cl)c(Cl)c2)c(Cl)c1` [Example 793, 4-(5-chloro-6-(3,4-dichlorobenzyl)pyridin-3-yl)-3-methoxy-N-(methylsulfonyl)benzamide] belongs 0.0504 µM; to `COc1cc(C(=O)NS(C)(=O)=O)c(F)cc1-c1cnc(Oc2c(F)ccc(C)c2F)c(Cl)c1` [Example 759, 4-(5-chloro-6-(2,6-difluoro-3-methylphenoxy)-3-pyridinyl)-2-fluoro-5-methoxy-N-(methylsulfonyl)benzamide], 0.0954 µM; to `Cc1cc(Cl)cc(Cl)c1Oc1ncc(-c2ccc(C(=O)NS(C)(=O)=O)cc2Cl)cc1Cl` [Example 776, 3-chloro-4-(5-chloro-6-(2,4-dichloro-6-methylphenoxy)-3-pyridinyl)-N-(methylsulfonyl)benzamide], 0.0345 µM. Consider `CS(=O)(=O)NC(=O)c1cc(F)c(-c2cnc(Oc3ccc(Cl)c(Cl)c3)c(Cl)c2)cc1F` [Example 570, 4-(5-chloro-6-(3,4-dichlorophenoxy)-3-pyridinyl)-2,5-difluoro-N-(methylsulfonyl)benzamide], for which the concentration for half-maximal inhibition (IC50) was 0.0612 µM. The compound `COc1cc(C(=O)NS(C)(=O)=O)c(F)cc1-c1cnc(N(C)C2CCC2)c(Cl)c1` [Example 697, 4-(5-chloro-6-(cyclobutyl(methyl)amino)-3-pyridinyl)-2-fluoro-5-methoxy-N-(methylsulfonyl)benzamide] yielded a half-inhibitory concentration (IC50) of 0.146 µM.

`COc1cc(C(=O)NS(C)(=O)=O)ccc1-c1cnc(Oc2ccc(C)c(Cl)c2)c(C#N)c1` [Example 549, 4-(6-(3-chloro-4-methylphenoxy)-5-cyano-3-pyridinyl)-3-methoxy-N-(methylsulfonyl)benzamide]: half-maximal inhibition (IC50) was put at 0.0505 µM. The same measure, in the same setting: to `Cc1cc(C(=O)NS(C)(=O)=O)c(F)cc1-c1cnc(Oc2ccc(F)cc2F)c(Cl)c1` [Example 603, 4-(5-chloro-6-(2,4-difluorophenoxy)-3-pyridinyl)-2-fluoro-5-methyl-N-(methylsulfonyl)benzamide] belongs 0.143 µM; to `Cc1cc(C(=O)NS(C)(=O)=O)c(F)cc1-c1cnc(O[C@@H](C)c2cccc3ccccc23)c(Cl)c1` [Example 682, 4-(5-chloro-6-((1S)-1-(1-naphthalenyl)ethoxy)-3-pyridinyl)-2-fluoro-5-methyl-N-(methylsulfonyl)benzamide], 0.0551 µM. In turn, `COc1cc(C(=O)NS(C)(=O)=O)c(F)cc1-c1cnc(O[C@H](C)Cc2ccccc2)c(Cl)c1` [Example 756, 4-(5-chloro-6-((1R)-1-methyl-2-phenylethoxy)-3-pyridinyl)-2-fluoro-5-methoxy-N-(methylsulfonyl)benzamide] gave a half-maximal inhibitory concentration (IC50) (in-vitro Nav 1.7 PX data) of 0.0553 µM.
